Assay results as given in patent US8445461B2, “Pharmaceutical composition for meniere's disease” (Setsuko Takeda, priority 2007, dated 2013).
“And” between values parts separate entries of the source, which are not always exact repeats. Identical values can stand only once.

Key:
[1] = tested on: guinea pigs excreting normal feces; assay: Antidiarrheal effect: observation of feces after oral administration of saccharides or sugar alcohols with or without polysaccharides (Example 1); type: in vivo
Description: The criteria for analyzing the conditions of feces (hardness, shape and spaces of feces in the intestine) are as shown in Table 2:
The hardness and microscopic findings of feces from the group administered with distilled water were assessed as “Normal” scoring 3, the feces having normal shape and the shape could rather easily change by pushing with fingers were assessed as “Slightly soft” scoring 2, those of which the shape had already changed or it could quite easily change by pushed with fingers were assessed as “Soft” scoring 1, and those of which the shape is muddy or watery or of no shape were assessed “Muddy” scoring 0. To be precese, there are no watery feces because of the nature of diets and thus the muddy feces correspond to watery and muddy feces in human.
Since the muddy feces comprise large content of water, they induce the high abdominal pressure and the flatulence and distension. […] In the case of gas generation, it appears that noxious symptom such as the flatulence and distension are synergistically deteriorated. Therefore, we assessed not only based on the hardness of feces, but also the size, smoothness of the surface and amount of feces.
In these experiments, I observed is the diarrhea caused by saccharides or sugar alcohols and antidiarrhreal effect of saccharides. Guinea pigs orally received saccharides or sugar alcohols, for example tetrose such as erythritol, pentose such as xylitol or xylose, hexose such as isosorbitol or the like in combination with or without polysaccharides for observation of the feces up to 6 hours after the administration.
Guinea pigs (body weight 280 to 320 g, normal feces) were divided into four groups: for Group 1-a, xylitol alone (Reference Example 1), or xylitol and xanthan gum or pectin; for Group 1-b, xylose alone (Reference Example 2), xylose and xanthan gum or pectin; for Group 1-c, erythritol alone (Reference Example 3), erythritol and pectin, erythritol and xanthan gum, or erythritol, pectin and natural aluminum silicate gel or calcium carbonate; and for Group 1-d, isosorbitol alone (Reference Example 4), or isosorbitol and xanthan gum or pectin were orally administered, respectively. The compounds are dissolved in distilled water and 8 ml/kg of said solution were administered as a single dose.
The feces were observed during 6 hours after the administration. When the animals fell into the most serious condition, the hardness and shape of the feces from said animals were assessed as the effect by saccharides or sugar alcohols in the animals.

[2] = tested on: experimental endolymphatic hydrops; assay: Endolymphatic hydrops decompression effect: IR-L, IR-S and regression lines in the operated ear; type: in vivo, guinea pigs; conditions: active agent 2.8 g/kg oral, alone or with additive; for Regression line IR-S vs IR-L: Y-intercept / Regression line IR-S vs IR-L: slope: operated ears, 3 hours after; for IR-L (%) increase ratio of the length of Reissner's membrane / IR-S (%) increase ratio of the cross-sectional area of the scala media: operated side, perfusion 3 hours after
Description: The endolymphatic hydrops-decompression effect of saccharides or sugar alcohols was evaluated by assaying as below in triplicate. Firstly, guinea pigs received the surgical obliteration of the endolymphatic sac in the left ear to prepare “experimental model animals with endolymphatic hydrops”. The surgical obliteration of the endolymphatic sac was carried out by burning the extraskeletal portion in the endolymphatic sac with a bipolar electrocoagulator. An endolymphatic sac plays an important role in the absorption of endolymphatic fluid. The inhibition of absorption of endolymphatic fluid was caused by burning the endolymphatic sac to prepare an experimental endolymphatic hydrops. Those hydrops are progressively formed. The size of hydrops becomes constant 2 weeks to month after the surgery and maintained for several months. In detail, see Non-patent Reference 8 for the surgery.
After 1 month, they were divided into 3 groups: Group 2-1 (groups 1-6), 60 animals; Group 2-2 (groups 7-10), 40 animals; and Group 2-3 (groups 11-20), […]. The animals in Group 2-1 received saccharides or sugar alcohols alone (Reference Example 5). The animals in Group 2-2 orally received saccharides or sugar alcohols added polysaccharides. The animals in Group 2-3 received other combinations of saccharides or sugar alcohols added polysaccharides. Animals were sacrificed after the oral administration and the observation and the assessment the gastrointestinal condition, and observed the morphological change of the cochlea mainly in the operated side (left side), in particular of the endolymphatic hydrops decompression effect.
I were obtained left sides of the temporal bones immediately following fixation and kept them in 10% formalin solution for 10 days or more. They were decalcified with 5% trichloroacetic acid and dehydrated with alcohol in increasing concentration, then embedded in paraffin and celloidin. The prepared blocks were cut serially in the horizontal plane. The mid-modiolar sections were stained in hematoxylin and eosin and studied under a light microscope. For the quantitative assessment of changes of the endolymphatic space, the change ratios of the length of Reissner's membrane and the cross-sectional area of the scala media in each turn were measured from the mid-modiolar sections of the cochlea.
From these parameters, the increase ratios (%) of the length of Reissner's membrane (IR-L) and the cross-sectional area (%) of the scala media (IR-S) of a total of four turns were calculated according to the equation as described below:
The increase ratio of the length of Reissner's membrane (IR-L)=100×Σ(Lx−L*x)/ΣL*x (x: first, second, third and fourth turns)
The increase ratio of the cross-section area of the scala media (IR-S)=100×Σ(Sx−S*x)/ΣS*x (x: first, second, third and fourth turns)
Since almost no difference is shown in the regression lines of each group, it cannot be understood that there is the decompression effect of erythritol alone. When endolymphatic hydrops is formed, the cross-sectional area of scala media and the length of Reissner's membrane will increase. It can be assumed from FIG. 1 that there is statistically a primary correlation between both of them in the operated side in the control group. The regression lines are; IR-S (distilled water)=4.011+1.212*IR-L (distilled water); R2=0.987, IR-S (1 hour after)=5.409+1.1*IR-L (1 hour after); R2=0.903, IR-S (2 hours after)=1.125+0.992*IR-L (2 hours after); R2=0.98, IR-S (3 hours after)=2.407+1.309*IR-L (3 hours after); R2=0.974, IR-S (6 hours after)=7.36+1.147*IR-L (6 hours after); R2=0.895, IR-S (12 hours after)=8.089+1.152*IR-L (12 hours after); R2=0.918.
The difference of decompression effect on endolymphatic hydrops depending on dose of pectin added and time-course of the decompression effect can hardly determined by comparing and analyzing the average and standard deviation of IR-L and IR-S in the operated side in each groups. […]

[3] = saccharide or sugar alcohol 2.8 g/kg oral, alone or with additive, feces observed for 6 hours
[4] = active agent 1.4 g/kg oral, within 6 hours
[5] = active agent 2.1 g/kg oral, within 6 hours
[6] = active agent 2.8 g/kg oral, alone or with additive of the label
[7] = active agent 2.8 g/kg oral, alone or with additives of the label, most serious condition within 6 hours

Hardness of feces 0 (Muddy): number of animals [1, 3]	Hardness of feces 1 (Soft): number of animals [1, 3]	Hardness of feces 3 (Normal): number of animals [1, 3]	Hardness of feces: Muddy (number of animals) [1, 7]	Hardness of feces: Normal (number of animals) [1, 7]	Hardness of feces: Slightly soft (number of animals) [1, 7]	Hardness of feces: Soft (number of animals) [1, 7]	SMILES	Regression line IR-S vs IR-L: Y-intercept [2]	Regression line IR-S vs IR-L: slope [2]	IR-L (%) increase ratio of the length of Reissner's membrane [2]	IR-S (%) increase ratio of the cross-sectional area of the scala media [2]	also measured
2 and 3	2	0	–	–	–	–	OC[C@@H](O)[C@@H](O)[C@H](O)[C@@H](O)CO [Sorbitol, sorbitol]	–	–	–	–	–
–	–	–	3	0	1	1	OC[C@@H](O)[C@H](O)[C@@H](O)CO [Xylitol, xylitol]	2.371	1.208	48.6 ± 40.3%	60.1 ± 48.9%	Hardness of feces: Muddy (number of animals) [1, 4]: 0; Hardness of feces: Normal (number of animals) [1, 4]: 5; Hardness of feces: Slightly soft (number of animals) [1, 4]: 0; Hardness of feces: Soft (number of animals) [1, 4]: 0; Hardness of feces: Muddy (number of animals) [1, 5]: 0; Hardness of feces: Normal (number of animals) [1, 5]: 4; Hardness of feces: Slightly soft (number of animals) [1, 5]: 1; Hardness of feces: Soft (number of animals) [1, 5]: 0; Time after administration of the peak (most serious) diarrhea [1, 6]: Three to four hours after the administration; Time after administration when diarrhea / softening of feces started [1, 6]: 2 h; Time after administration when feces recovered to (almost) normal [1, 6]: 6 h
–	–	–	1	0	1	3	O=C[C@H](O)[C@@H](O)[C@H](O)CO [Xylose, xylose]	1.197	1.364	29.7 ± 21.3%	41.7 ± 30.1%	Abdominal distension / gas by inspections and palpations [1, 6]: mild or moderate flatulence and distension
1	2	0	–	–	–	–	OC[C@@H](O)[C@@H](O)[C@H](O)[C@H](O)CO [mannitol]	–	–	–	–	Hardness of feces 2 (Slightly soft): number of animals [1, 3]: 1
